Measured values taken from patent US8377993B2, “Insecticidal compound” (Dainihon Jochugiku Co., Ltd., priority 2010, dated 2013).
Entries after “also recorded” stand apart in the source; their conditions may differ.

Tests used:
Female house mosquitoes = experiment: Petri dish insecticidal efficacy test (KT100 and mortality after 24 hours); type: in vivo
Excerpt: The fractionated component E2-4-2 which is a mixture of compound A and compound B was subjected to the insecticidal efficacy test based on the test conditions shown in Table 3, wherein the concentration of the fractionated component E2-4-2, natural pyrethrin, and dl-d-T80-allethrin was further diluted for the test.

[1] = tested on: adults of Blattella germanica; settings: on the basis of the LD50 value by a microdropping method; cited from earlier work
adults of house flies = settings: cited from earlier work

C=CCC1=C(C)C(OC(=O)C2C(C=C(C)C)C2(C)C)CC1=O (racemic) [dl-d-T80-allethrin]
KT100 value (Female house mosquitoes; Table 4, 0.001 mg/6.15 cm^2): 50 min
The mortality after 24 hours (Female house mosquitoes; Table 4, 0.001 mg/6.15 cm^2): 83%
KT100 value (Female house mosquitoes; Table 4, 0.01 mg/6.15 cm^2): <5 min
The mortality after 24 hours (Female house mosquitoes; Table 4, 0.01 mg/6.15 cm^2): 100%
The mortality after 24 hours (Female house mosquitoes; Table 4, 0.1 mg/6.15 cm^2): 100%
KT100 value (Female house mosquitoes; Table 4, 0.1 mg/6.15 cm^2, time to 100% knockdown): <5 min
KT100 value (Female house mosquitoes; Table 5, 10^−1 mg/6.15 cm^2): <5 min
The mortality after 24 hours (Female house mosquitoes; Table 5, 10^−1 mg/6.15 cm^2): 100%
KT100 value (Female house mosquitoes; Table 5, 10^−2 mg/6.15 cm^2): <5 min
The mortality after 24 hours (Female house mosquitoes; Table 5, 10^−2 mg/6.15 cm^2): 100%
KT100 value (Female house mosquitoes; Table 5, 10^−3 mg/6.15 cm^2): 50 min
The mortality after 24 hours (Female house mosquitoes; Table 5, 10^−3 mg/6.15 cm^2): 83%
KT100 value (Female house mosquitoes; Table 5, 10^−4 mg/6.15 cm^2): >120 min
The mortality after 24 hours (Female house mosquitoes; Table 5, 10^−4 mg/6.15 cm^2): 17%
KT100 value (Female house mosquitoes; Table 7, 10^−5 mg/6.15 cm^2): cannot achieved; also recorded: Survive
The mortality after 24 hours (Female house mosquitoes; Table 7, 10^−5 mg/6.15 cm^2): 0%
dose required for killing the adults of Blattella germanica relative to the dose required for killing the adults of house mosquitoes [1]: about 103 times
dose required for killing the adults of house flies relative to the dose required for killing the adults of house mosquitoes (adults of house flies; on the basis of the LD50 value by a microdropping method): about 17 times
dose required for killing the adult house flies relative to the dose required for killing northern house mosquitoes (adults of house flies; rounded statement): about 20 times
